Source: ChEMBL document CHEMBL5335841, “In vitro biological evaluation and in silico studies of linear diarylheptanoids from Curcuma aromatica Salisb. as urease inhibitors” (RSC Med Chem, 2024)

Key:
[1] = Inhibition of urease (unknown origin) using urea as substrate preincubated for 30 mins followed by substrate addition and measured after 20 mins by red phenol reagent based assay
[2] = Inhibition of urease (unknown origin) at 250 uM using urea as substrate preincubated for 30 mins followed by substrate addition and measured after 20 mins by red phenol reagent based assay relative to control; details: time 50.0 min

Row | Structure (SMILES) | IC50 [1] | inhibition [2]
1 | COc1cc(CC[C@@H](O)C[C@@H](O)CCc2ccc(O)cc2)ccc1O (relative stereo) | 153 µM | –
2 | COc1cc(CC[C@@H](O)C[C@@H](O)CCc2ccc(O)cc2)cc(OC)c1O (relative stereo) | 228 µM | –
3 | COc1cc(CC[C@H](O)C[C@H](O)CCc2cc(OC)c(O)c(OC)c2)ccc1O (relative stereo) | > 250 µM | 27.3%
4 | COc1cc(CC[C@H](C[C@H](CCc2ccc(O)cc2)OC(C)=O)OC(C)=O)ccc1O (relative stereo) | 223 µM | –
5 | COc1cc(CC[C@@H](O)C[C@H](O)CCc2cc(OC)c(O)c(OC)c2)ccc1O (relative stereo) | > 250 µM | 14.3%
6 | COc1cc(CC[C@H](C[C@H](CCc2ccc(O)cc2)OC(C)=O)OC(C)=O)cc(OC)c1O (relative stereo) | > 250 µM | 3.3%

Now those with a lower IC50 [1], led by results:

Row | IC50 [1] | inhibition [2] | Structure (SMILES)
7 | 9.6 µM | – | Oc1ccc(CC[C@H](O)C[C@H](O)CCc2ccc(O)c(O)c2)cc1 (relative stereo)
8 | 21.8 µM | – | COc1cc(CC[C@@H](O)C[C@H](O)CCc2ccc(O)c(O)c2)ccc1O (relative stereo)
9 | 129 µM | – | CC(=O)O[C@H](CCc1ccc(O)c(O)c1)C[C@H](CCc1ccc(O)cc1)OC(C)=O (relative stereo)
10 | 77.5 µM | – | NC(=O)NO [HYDROXYUREA]
